Legend:
PCP receptors = assay: Phencyclidine (PCP) receptor binding assay with [3H]TCP; details: guinea pig brain; determined in independent experiments
[1] = tested on: dynorphin A induced spinal cord injury model; assay: Dynorphin A induced spinal cord injury model (hindlimb motor function); assay type: in vivo, rat
Description: Neuroprotective properties of BD-1008 and selected compounds of this invention have been evaluated in the dynorphin A induced spinal cord injury model. Along with several other neuropeptides, dynorphin A has potent vasoconstrictory effects on the vasculature of the rat brain and spinal cord; thus it provides a convenient, reproducible pharmacological means to induce and study ischemic central nervous system injury. Furthermore, localized effects of this peptide on the lumbosacral spinal cord following L4-L5 intervertebral injection allows for simple and straightforward neurological appraisals through assessment of hindlimb motor function.

Sigma receptors = assay: Sigma receptor binding assay with [3H]-(+)-3-PPP, crude P2 membranes; details: guinea pig brain membranes; determined in independent experiments
Procedure: Sigma receptors were labeled with [^3H]-(+)-3-PPP (109 Ci/mmol).
For most compounds in the study, a concentration range of 0.0005-100 nM was appropriate. […] Twelve concentrations of unlabelled ligand were incubated with 3 nM [^3H](+)-3-PPP as described in Methods. The CDATA iterative curve fitting program (EMF Software, Inc., Baltimore, MD) was used to determine IC50 values. Values are the average of 2-4 experiments, ±SEM. Each experiment was carried out in duplicate. The Cheng-Prussoff equation^27 was then used to convert IC50 values to apparent Ki values.

c1csc(C2(N3CCCCC3)CCCCC2)c1 [[^3H]TCP]
Kd (PCP receptors): 25 nM

CN(CCc1ccc(Cl)c(Cl)c1)CCN1CCCC1 [BD-1008]
impact on the primary vascular responses to dynorphin A ([1]; dynorphin A-induced reduction in lumbosacral blood flow): without any measurable impact | neurological recovery from the flaccid hindlimb paralysis ([1]; paralysis from a 20 nanomole dose of dynorphin A, L4-L5 intervertebral injection): significantly improves neurological recovery

CCCN1CCC[C@H](c2cccc(O)c2)C1 [[^3H]-(+)-3-PPP]
Kd (Sigma receptors): 27.4 nM
